Experiment [1] has as its system Micrococcus luteus ATCC 10240. Kind of experiment: Membrane permeabilization (pore formation), SYTOX green. It counts as cell-based. Particulars: 5 μM SYTOX green, pentocin MQ1 at 5 X MIC, nisin as positive control, Real-Time PCR read-out, triplicates. On the procedure: Pore formation assay was done to understand the mechanism of action of pentocinMQ1. M. luteus was grown in Mueller-Hinton broth until OD600nm = 0.45 after which 5 μM SYTOX green dye (Invitrogen, USA) was added. Ninety microliters of stained bacteria was added to MicroAmp Fast Optical 96-well reaction plate (Applied Biosystems, Life Technologies, USA). After a stable line base was attained, 10 μl of pentocin MQ1 (5 X MIC) was added to the stained bacteria. Sodium phosphate buffer (5 mM) and nisin (Sigma-Aldrich, USA) were added to stained bacteria in different wells to serve as negative and positive controls, respectively. Experiments were done in triplicates. Fluorescence as a result of binding of SYTOX green to leaked intracellular DNA was monitored using Real-Time PCR (Applied Biosystems, USA).

Experiment [2] relates to M. luteus. The settings on record: within 30 min; ref Barbour et al., 2016; cited from earlier work. An excerpt:
The two main modes of action of LAB bacteriocins against Gram-positive bacteria are pore formation and inhibition of cell wall synthesis (Cotter et al., [2013]). […] This implies that pore formation is a more rapid killing mechanism.

For experiment [3], the system named is Bacillus spp. The settings on record: ref Mota-Meira et al., 2000; cited from earlier work. On the procedure: (§1) Pentocin MQ1 was strongly inhibitory against L. monocytogenes NCTC 10890, M. luteus ATCC 10240, and B. cereus ATCC14579 at micromolar concentrations. High activity at low concentration is a desirable property of natural biopreservatives (Bali et al., [2016]). MIC-values for nisin A against Micrococcus spp. and Bacillus spp. (Mota-Meira et al., [2000]) are lower than that of pentocin MQ1. […] After 120 min ...

Experiment [4] deals with Micrococcus spp. Particulars: ref Mota-Meira et al., 2000; cited from earlier work. On the procedure:
as §1

Consider nisin, for which the “fluorescence intensity (SYTOX green binding to leaked intracellular DNA)” value in experiment [1] is “higher fluorescence intensity”. In addition, the increase in fluorescence entry in experiment [2] is on record as “caused an increase in fluorescence intensity”.
As for nisin A, the “MIC compared with pentocin MQ1” value in experiment [3] and in experiment [4] was “lower” in each case.
